The record followed here is ChEMBL document CHEMBL3714764, “Diaminopyrimidine p2x3 and p2x2/3 receptor modulators for treatment of acute, sub-acute or chronic cough” (2015).

The structures appear in SMILES notation. Active and inactive are the calls of the source. The rule behind the calls is not given here.

One experiment concerns the target T1, P2X purinoceptor 3 (Rattus norvegicus) (UniProt P49654).
T1 sequence (whole entry): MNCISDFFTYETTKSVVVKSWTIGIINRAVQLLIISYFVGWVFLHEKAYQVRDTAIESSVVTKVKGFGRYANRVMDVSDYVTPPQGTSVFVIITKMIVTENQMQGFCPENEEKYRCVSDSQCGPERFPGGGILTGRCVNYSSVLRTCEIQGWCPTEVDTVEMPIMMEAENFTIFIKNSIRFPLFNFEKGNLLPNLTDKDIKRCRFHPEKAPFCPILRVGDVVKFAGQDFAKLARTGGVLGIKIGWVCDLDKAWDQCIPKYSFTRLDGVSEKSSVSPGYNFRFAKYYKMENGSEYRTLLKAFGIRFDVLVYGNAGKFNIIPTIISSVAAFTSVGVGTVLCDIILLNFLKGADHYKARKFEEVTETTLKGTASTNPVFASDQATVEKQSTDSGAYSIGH
As to the kind of experiment: (§1) Antagonist activity against rat P2X3 receptor expressed in CHO-K1 cells assessed as effect on calcium level incubated for 20 mins by Fluo-3AM dye based FLIPR assay. The format is functional, cell-based.
Regarding `COc1cc(C(C)C)c(Oc2cnc(N)nc2N)cc1C(C)OC` (configuration not stated), the inhibition result was “Active”.

`C#CCOc1cc(C(C)C)c(Oc2cnc(N)nc2N)cc1I`: the inhibition result was “Active”.

As to `C=Cc1cc(Oc2cnc(N)nc2N)c(C(C)C)cc1OC`, the inhibition entry is “Active”.

As to `COc1cc(C(C)C)c(Oc2cnc(N)nc2N)cc1[N+](=O)[O-]`, the inhibition entry was “Active”.

In the case of `COc1cc(C(C)C)c(Oc2cnc(N)nc2N)cc1C`, the inhibition result is “Active”.

On to `COc1cc(C(C)C)c(Oc2cnc(N)nc2N)cc1C(C)=O`, for which the inhibition result was “Active”.

`CC(C)c1cc(OCC(F)(F)F)c(I)cc1Oc1cnc(N)nc1N`: the inhibition entry was “Active”.

Consider `COc1cc(C(C)C)c(Oc2cnc(N)nc2N)cc1OC(F)(F)F`, for which the inhibition entry is “Active”.

Consider `CC(C)c1cc(O)c(I)cc1Cc1cnc(N)nc1N`, for which the inhibition entry was “Active”.

As to `COc1cc(C(C)C)c(Oc2cnc(N)nc2N)cc1Br`, the inhibition entry is “Active”.

On to `COc1cc(C(C)C)c(Oc2cnc(N)nc2N)cc1C(C)(C)O`, for which the inhibition result was “Active”.

Turning to `COc1cc(C(C)C)c(Oc2cnc(N)nc2N)cc1I`, the inhibition result is “Active”.

Take `CNS(=O)(=O)c1cc(Oc2cnc(N)nc2N)c(C(C)C)cc1OC`: the inhibition result is “Active”.

Regarding `COc1cc(C(C)C)c(Oc2cnc(N)nc2N)cc1Cl`, the inhibition entry is “Active”.

In the case of `CC(C)c1cc(OC(F)F)c(Cl)cc1Oc1cnc(N)nc1N`, the inhibition entry is “Active”.

Take `COc1cc(C(C)C)c(Oc2cnc(N)nc2N)cc1F`: the inhibition result is “Active”.

Consider `COc1cc(C(C)C)c(Oc2cnc(N)nc2N)cc1NC(C)=O`, for which the inhibition result is “Active”.

In the case of `COc1cc(C(C)C)c(Oc2cnc(N)nc2N)cc1C(=O)O`, the inhibition result is “Active”.

In the case of `CC(=O)c1cc(Oc2cnc(N)nc2N)c(C(C)C)cc1O`, the inhibition result is “Active”.

As for `COc1cc(C(C)C)c(Oc2cnc(N)nc2N)cc1C#N`, the inhibition entry is “Active”.

For `COc1cc(C(C)C)c(Oc2cnc(N)nc2N)cc1C(C)C`, the inhibition result is “Active”.

Turning to `CNC(=O)c1cc(Oc2cnc(N)nc2N)c(C(C)C)cc1OC`, the inhibition result is “Active”.

On to `COc1cc(C(C)C)c(Oc2cnc(N)nc2N)cc1NC(=O)Nc1ccccc1`, for which the inhibition entry was “Active”.

On to `COc1cc(C(C)C)c(Oc2cnc(N)nc2N)cc1N`, for which the inhibition result was “Active”.

`CCNS(=O)(=O)c1cc(Oc2cnc(N)nc2N)c(C(C)C)cc1OC`: the inhibition entry was “Active”.

In the case of `COc1cc(C(C)C)c(Oc2cnc(N)nc2N)cc1S(N)(=O)=O` [GEFAPIXANT], the inhibition entry was “Active”.

Consider `COc1cc(C(C)C)c(Oc2cnc(N)nc2N)cc1NC(N)=O`, for which the inhibition result is “Active”.

On to `COc1cc(C(C)C)c(Oc2cnc(N)nc2N)cc1C(C)O` (configuration not stated), for which the inhibition result is “Active”.

In the case of `COc1cc(Oc2cnc(N)nc2N)c(C(C)C)cc1OC`, the inhibition result was “Active”.

Consider `COc1cc(C(C)C)c(Oc2cnc(N)nc2N)cc1C(N)=O`, for which the inhibition entry was “Active”.

Turning to `COc1cc(C(C)C)c(Oc2cnc(N)nc2N)cc1S(C)(=O)=O`, the inhibition result is “Active”.

Take `CCOc1cc(C(C)C)c(Oc2cnc(N)nc2N)cc1I`: the inhibition entry is “Active”.

Consider `CCS(=O)(=O)c1cc(Oc2cnc(N)nc2N)c(C(C)C)cc1OC`, for which the inhibition result is “Active”.

For `COc1cc(C(C)C)c(Oc2cnc(N)nc2N)cc1C(=O)N(C)C`, the inhibition result was “Active”.

Consider `COc1cc(C(C)C)c(Oc2cnc(N)nc2N)cc1C(F)(F)F`, for which the inhibition entry is “Active”.

Take `CCNC(=O)Nc1cc(Oc2cnc(N)nc2N)c(C(C)C)cc1OC`: the inhibition entry is “Active”.

For a further experiment, the target named is T2, P2X purinoceptor 3 (Rattus norvegicus, UniProt P49654).
T2 sequence (P49654 whole entry): T1 sequence (whole entry)
The description is as §1. The format is functional, cell-based.
Broadly, the IC50 is the concentration that inhibits the measured activity by half. Consider `CC(C)c1cc(O)c(I)cc1Oc1cnc(N)nc1N`, for which the IC50 was 5.01 nM.

For a further experiment, the species on record is Homo sapiens. As to the kind of experiment: Anti-tussive activity in idiopathic/treatment-resistant chronic cough patient assessed as reduction in daytime cough per hour at 600 mg BID measured after 2 weeks during double-blind randomized placebo-controlled crossover trial. The format is functional.
For the compound `COc1cc(C(C)C)c(Oc2cnc(N)nc2N)cc1S(N)(=O)=O` [GEFAPIXANT], the “inhibition (INH)” value is on record as 75%.

For a further experiment, the species on record is Homo sapiens. The experiment in a line: Anti-tussive activity in idiopathic/treatment-resistant chronic cough patient assessed as cough severity visual analogue scales at 600 mg BID measured after 2 weeks during double-blind randomized placebo-controlled crossover trial. The format is functional.
With `COc1cc(C(C)C)c(Oc2cnc(N)nc2N)cc1S(N)(=O)=O` [GEFAPIXANT], the Activity is -26 mm.

The species named for another experiment is Homo sapiens. As to the kind of experiment: Anti-tussive activity in idiopathic/treatment-resistant chronic cough patient assessed as urge to cough analogue scales at 600 mg BID measured after 2 weeks during double-blind randomized placebo-controlled crossover trial. The format is functional.
Regarding `COc1cc(C(C)C)c(Oc2cnc(N)nc2N)cc1S(N)(=O)=O` [GEFAPIXANT], the Activity was -21 mm.

The species named for a further experiment is Homo sapiens. The experiment in a line: Anti-tussive activity in idiopathic/treatment-resistant chronic cough patient assessed as global ratings of change and cough quality of life questionnaire at 600 mg BID measured after 2 weeks during double-blind randomized placebo-controlled crossover trial. In kind it is functional.
On to `COc1cc(C(C)C)c(Oc2cnc(N)nc2N)cc1S(N)(=O)=O` [GEFAPIXANT], for which the Activity_index is recorded as -9.

The species entered for the next experiment is Homo sapiens. The experiment in a line: Anti-tussive activity in patient with refractory chronic cough assessed as reduction in objective daytime cough counts at 600 mg BID measured after 2 weeks during double-blind randomized placebo-controlled crossover trial. In kind it is functional.
On to `COc1cc(C(C)C)c(Oc2cnc(N)nc2N)cc1S(N)(=O)=O` [GEFAPIXANT], for which the “inhibition (INH)” value stood at 75%.
